The kinase profiling compilation of Christmann-Franck et al. (2016)

Columns and labels:
Assay in all cases: KINOMEscan competition binding
Conditions in all cases: compound 1.0 µM
[1] = system: ABL1 (human), P00519 [T315I]
BMX (human) = BMX (human) (UniProt P51813)
BTK (human) = BTK (human) (UniProt Q06187)
CAMK1G (human) = CAMK1G (human) (UniProt Q96NX5)
CDC42BPG (human) = CDC42BPG (human) (UniProt Q6DT37)
CDK15 (human) = CDK15 (human) (UniProt Q96Q40)
CDK17 (human) = CDK17 (human) (UniProt Q00537)
CDK3 (human) = CDK3 (human) (UniProt Q00526)
CDK5 (human) = CDK5 (human) (UniProt Q00535)
CDKL3 (human) = CDKL3 (human) (UniProt Q8IVW4)
CSNK1G2 (human) = CSNK1G2 (human) (UniProt P78368)
CSNK1G3 (human) = CSNK1G3 (human) (UniProt Q9Y6M4)
DMPK (human) = DMPK (human) (UniProt Q09013)
EPHA6 (human) = EPHA6 (human) (UniProt Q9UF33)
ERN1 (human) = ERN1 (human) (UniProt O75460)
[2] = system: FGFR3 (human), P22607 [G697C]
FLT1 (human) = FLT1 (human) (UniProt P17948)
[3] = system: FLT3 (human), P36888 [K663Q]
GSK3B (human) = GSK3B (human) (UniProt P49841)
IKBKB (human) = IKBKB (human) (UniProt O14920)
MAP3K1 (human) = MAP3K1 (human) (UniProt Q13233)
MAP3K13 (human) = MAP3K13 (human) (UniProt O43283)
MAP3K15 (human) = MAP3K15 (human) (UniProt Q6ZN16)
MAP3K7 (human) = MAP3K7 (human) (UniProt O43318)
MAP4K2 (human) = MAP4K2 (human) (UniProt Q12851)
MAPK13 (human) = MAPK13 (human) (UniProt O15264)
MAPK7 (human) = MAPK7 (human) (UniProt Q13164)
NEK2 (human) = NEK2 (human) (UniProt P51955)
NUAK1 (human) = NUAK1 (human) (UniProt O60285)
PAK6 (human) = PAK6 (human) (UniProt Q9NQU5)
PRKACA (human) = PRKACA (human) (UniProt P17612)
PRKD1 (human) = PRKD1 (human) (UniProt Q15139)
PRKD2 (human) = PRKD2 (human) (UniProt Q9BZL6)
PRKD3 (human) = PRKD3 (human) (UniProt O94806)
RIPK2 (human) = RIPK2 (human) (UniProt O43353)
RPS6KA1 KD1 (human) = RPS6KA1 KD1 (human) (UniProt Q15418)
SIK1 (human) = SIK1 (human) (UniProt P57059)
SIK3 (human) = SIK3 (human) (UniProt Q9Y2K2)
TESK1 (human) = TESK1 (human) (UniProt Q15569)
[4] = target: TYK2 JH1 catalytic (human) (UniProt P29597)

Sequence of CSNK1G3 (human) (Q9Y6M4 whole entry, looked up): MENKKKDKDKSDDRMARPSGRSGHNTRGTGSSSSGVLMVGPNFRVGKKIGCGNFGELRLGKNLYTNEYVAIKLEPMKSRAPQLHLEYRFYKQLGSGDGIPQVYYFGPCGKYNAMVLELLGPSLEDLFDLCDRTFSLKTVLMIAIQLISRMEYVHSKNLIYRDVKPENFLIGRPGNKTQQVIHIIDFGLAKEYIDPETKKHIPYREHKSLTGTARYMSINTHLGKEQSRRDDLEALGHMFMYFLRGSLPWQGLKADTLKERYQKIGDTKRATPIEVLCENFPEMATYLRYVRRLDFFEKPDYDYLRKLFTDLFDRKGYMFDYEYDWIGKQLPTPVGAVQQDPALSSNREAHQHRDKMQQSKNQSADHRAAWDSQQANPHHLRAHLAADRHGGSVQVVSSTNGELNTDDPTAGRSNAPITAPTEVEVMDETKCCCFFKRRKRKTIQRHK
Sequence of SIK3 (human) (Q9Y2K2 whole entry, looked up): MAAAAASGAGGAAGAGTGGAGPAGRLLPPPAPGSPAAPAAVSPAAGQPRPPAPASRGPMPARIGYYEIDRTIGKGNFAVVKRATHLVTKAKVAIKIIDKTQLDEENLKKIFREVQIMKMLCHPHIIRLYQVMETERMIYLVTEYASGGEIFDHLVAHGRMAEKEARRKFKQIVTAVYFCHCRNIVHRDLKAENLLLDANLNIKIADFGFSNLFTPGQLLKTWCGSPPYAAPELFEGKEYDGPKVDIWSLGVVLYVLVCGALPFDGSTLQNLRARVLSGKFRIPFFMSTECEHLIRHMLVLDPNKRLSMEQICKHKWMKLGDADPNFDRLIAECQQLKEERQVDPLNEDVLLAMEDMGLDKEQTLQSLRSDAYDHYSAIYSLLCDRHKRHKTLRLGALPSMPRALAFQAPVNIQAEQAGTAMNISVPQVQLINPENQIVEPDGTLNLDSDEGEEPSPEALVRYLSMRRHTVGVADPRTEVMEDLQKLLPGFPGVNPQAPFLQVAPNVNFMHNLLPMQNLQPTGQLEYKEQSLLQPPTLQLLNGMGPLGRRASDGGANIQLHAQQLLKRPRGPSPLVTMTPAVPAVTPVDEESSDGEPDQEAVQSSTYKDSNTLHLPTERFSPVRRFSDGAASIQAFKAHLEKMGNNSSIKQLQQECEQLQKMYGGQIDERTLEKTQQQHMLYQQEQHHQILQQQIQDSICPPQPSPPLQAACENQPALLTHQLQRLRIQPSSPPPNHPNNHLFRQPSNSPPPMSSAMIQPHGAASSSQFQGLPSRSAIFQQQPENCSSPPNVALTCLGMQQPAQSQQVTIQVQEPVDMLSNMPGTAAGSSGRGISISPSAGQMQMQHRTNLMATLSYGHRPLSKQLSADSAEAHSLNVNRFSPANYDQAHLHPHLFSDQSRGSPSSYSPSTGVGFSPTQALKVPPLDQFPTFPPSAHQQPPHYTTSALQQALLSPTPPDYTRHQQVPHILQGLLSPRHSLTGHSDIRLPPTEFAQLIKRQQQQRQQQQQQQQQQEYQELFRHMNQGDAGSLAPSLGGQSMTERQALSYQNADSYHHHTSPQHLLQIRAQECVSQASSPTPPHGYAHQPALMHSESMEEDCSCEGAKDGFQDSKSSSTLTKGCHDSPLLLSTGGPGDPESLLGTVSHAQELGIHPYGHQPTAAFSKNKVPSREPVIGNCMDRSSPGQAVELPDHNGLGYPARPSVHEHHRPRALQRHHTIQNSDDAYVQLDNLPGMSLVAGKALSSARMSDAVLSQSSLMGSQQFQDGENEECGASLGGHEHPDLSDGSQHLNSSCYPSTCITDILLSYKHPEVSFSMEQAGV
Sequence of CDK5 (human) (Q00535 whole entry, looked up): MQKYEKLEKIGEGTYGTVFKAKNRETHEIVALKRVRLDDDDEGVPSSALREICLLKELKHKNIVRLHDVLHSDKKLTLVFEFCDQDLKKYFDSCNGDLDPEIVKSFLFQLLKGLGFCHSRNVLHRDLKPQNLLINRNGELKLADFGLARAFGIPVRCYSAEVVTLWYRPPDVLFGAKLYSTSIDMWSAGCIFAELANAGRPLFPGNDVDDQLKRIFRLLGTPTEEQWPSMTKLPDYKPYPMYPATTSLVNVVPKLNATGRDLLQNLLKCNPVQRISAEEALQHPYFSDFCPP
Sequence of CDK15 (human) (Q96Q40 whole entry, looked up): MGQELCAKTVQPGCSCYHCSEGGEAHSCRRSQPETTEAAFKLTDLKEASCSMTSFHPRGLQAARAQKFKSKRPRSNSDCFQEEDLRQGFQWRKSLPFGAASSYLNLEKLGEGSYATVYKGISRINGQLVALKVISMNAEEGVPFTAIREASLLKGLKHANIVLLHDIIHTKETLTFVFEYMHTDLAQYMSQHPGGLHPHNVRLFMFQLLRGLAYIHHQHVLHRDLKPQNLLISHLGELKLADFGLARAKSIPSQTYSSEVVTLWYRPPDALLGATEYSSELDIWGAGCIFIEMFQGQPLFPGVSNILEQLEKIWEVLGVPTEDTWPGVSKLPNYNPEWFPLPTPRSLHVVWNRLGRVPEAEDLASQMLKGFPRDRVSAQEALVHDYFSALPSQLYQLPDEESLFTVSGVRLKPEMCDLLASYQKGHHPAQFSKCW
Sequence of PRKD3 (human) (O94806 whole entry, looked up): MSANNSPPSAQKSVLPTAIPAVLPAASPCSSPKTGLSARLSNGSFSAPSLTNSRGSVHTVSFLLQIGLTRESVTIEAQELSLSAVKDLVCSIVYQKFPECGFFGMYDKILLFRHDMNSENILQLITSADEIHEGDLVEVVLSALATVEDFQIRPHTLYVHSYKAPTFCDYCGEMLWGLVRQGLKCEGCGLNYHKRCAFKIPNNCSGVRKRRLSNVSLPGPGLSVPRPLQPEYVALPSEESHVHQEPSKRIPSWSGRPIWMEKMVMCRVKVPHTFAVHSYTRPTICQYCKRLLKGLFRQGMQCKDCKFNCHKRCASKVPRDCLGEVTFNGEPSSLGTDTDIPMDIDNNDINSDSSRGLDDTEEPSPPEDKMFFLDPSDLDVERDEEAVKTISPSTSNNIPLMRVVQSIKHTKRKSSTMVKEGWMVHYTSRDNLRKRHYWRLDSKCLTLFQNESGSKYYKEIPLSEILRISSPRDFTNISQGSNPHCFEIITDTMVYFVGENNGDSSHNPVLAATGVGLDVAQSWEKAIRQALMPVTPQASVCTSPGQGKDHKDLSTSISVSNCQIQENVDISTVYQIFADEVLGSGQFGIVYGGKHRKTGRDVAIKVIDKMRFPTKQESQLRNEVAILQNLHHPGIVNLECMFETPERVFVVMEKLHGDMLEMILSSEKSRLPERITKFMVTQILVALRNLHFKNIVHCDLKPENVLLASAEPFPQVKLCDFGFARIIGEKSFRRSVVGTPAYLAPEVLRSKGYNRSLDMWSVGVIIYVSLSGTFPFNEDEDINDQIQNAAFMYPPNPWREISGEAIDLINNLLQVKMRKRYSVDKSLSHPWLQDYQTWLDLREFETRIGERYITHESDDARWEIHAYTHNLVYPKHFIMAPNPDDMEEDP
Sequence of RPS6KA1 KD1 (human) (Q15418 whole entry, looked up): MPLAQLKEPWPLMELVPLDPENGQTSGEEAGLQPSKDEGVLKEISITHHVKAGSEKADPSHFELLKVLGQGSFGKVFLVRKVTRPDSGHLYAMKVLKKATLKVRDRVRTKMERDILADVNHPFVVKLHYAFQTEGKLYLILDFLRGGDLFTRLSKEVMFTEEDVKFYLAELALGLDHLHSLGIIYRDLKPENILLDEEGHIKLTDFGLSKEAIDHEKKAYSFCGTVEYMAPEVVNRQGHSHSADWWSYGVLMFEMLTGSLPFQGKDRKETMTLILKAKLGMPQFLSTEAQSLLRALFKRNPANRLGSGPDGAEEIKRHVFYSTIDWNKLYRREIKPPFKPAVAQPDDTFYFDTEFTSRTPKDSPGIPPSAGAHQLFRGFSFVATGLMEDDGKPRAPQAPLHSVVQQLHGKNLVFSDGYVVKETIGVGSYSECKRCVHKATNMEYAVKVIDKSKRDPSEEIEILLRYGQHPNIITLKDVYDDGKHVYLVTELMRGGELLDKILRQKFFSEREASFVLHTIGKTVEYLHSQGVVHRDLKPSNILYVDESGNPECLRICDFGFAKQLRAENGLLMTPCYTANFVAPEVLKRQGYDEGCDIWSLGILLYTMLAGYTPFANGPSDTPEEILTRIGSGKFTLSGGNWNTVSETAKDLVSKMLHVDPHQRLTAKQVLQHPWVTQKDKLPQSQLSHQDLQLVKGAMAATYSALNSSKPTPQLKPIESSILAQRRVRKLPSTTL
Sequence of BTK (human) (Q06187 whole entry, looked up): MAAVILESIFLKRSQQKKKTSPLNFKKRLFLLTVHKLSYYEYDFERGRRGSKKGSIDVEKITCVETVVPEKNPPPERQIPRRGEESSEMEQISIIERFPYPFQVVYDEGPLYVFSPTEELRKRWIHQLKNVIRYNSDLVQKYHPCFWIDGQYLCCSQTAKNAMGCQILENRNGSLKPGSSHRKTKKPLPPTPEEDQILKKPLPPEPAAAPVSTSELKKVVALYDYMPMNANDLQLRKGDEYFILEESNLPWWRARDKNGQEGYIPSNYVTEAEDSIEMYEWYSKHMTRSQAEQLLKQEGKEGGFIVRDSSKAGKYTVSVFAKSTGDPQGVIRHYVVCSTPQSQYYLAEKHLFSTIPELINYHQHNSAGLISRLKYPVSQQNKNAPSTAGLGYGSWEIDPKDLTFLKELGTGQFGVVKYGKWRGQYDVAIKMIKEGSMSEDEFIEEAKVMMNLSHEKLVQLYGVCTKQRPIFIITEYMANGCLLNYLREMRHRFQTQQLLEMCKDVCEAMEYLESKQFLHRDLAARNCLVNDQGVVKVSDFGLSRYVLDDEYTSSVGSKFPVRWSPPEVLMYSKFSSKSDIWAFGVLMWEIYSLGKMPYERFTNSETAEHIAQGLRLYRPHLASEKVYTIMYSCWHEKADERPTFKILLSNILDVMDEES

- inhibition of binding [1]: 2%
- inhibition of binding (BMX (human)): 14%
- inhibition of binding (BTK (human)): 6%
- inhibition of binding (CAMK1G (human)): 0%
- inhibition of binding (CDC42BPG (human)): 0%
- inhibition of binding (CDK15 (human)): 0%
- inhibition of binding (CDK17 (human)): 26%
- inhibition of binding (CDK3 (human)): 0%
- inhibition of binding (CDK5 (human)): 0%
- inhibition of binding (CDKL3 (human)): 0%
- inhibition of binding (CSNK1G2 (human)): 0%
- inhibition of binding (CSNK1G3 (human)): 20%
- inhibition of binding (DMPK (human)): 0%
- inhibition of binding (EPHA6 (human)): 3%
- inhibition of binding (ERN1 (human)): 5%
- inhibition of binding [2]: 0%
- inhibition of binding (FLT1 (human)): 0%
- inhibition of binding [3]: 0%
- inhibition of binding (GSK3B (human)): 0%
- inhibition of binding (IKBKB (human)): 0%
- inhibition of binding (MAP3K1 (human)): 0%
- inhibition of binding (MAP3K13 (human)): 0%
- inhibition of binding (MAP3K15 (human)): 0%
- inhibition of binding (MAP3K7 (human)): 5%
- inhibition of binding (MAP4K2 (human)): 17%
- inhibition of binding (MAPK13 (human)): 0%
- inhibition of binding (MAPK7 (human)): 0%
- inhibition of binding (NEK2 (human)): 0%
- inhibition of binding (NUAK1 (human)): 42%
- inhibition of binding (PAK6 (human)): 16%
- inhibition of binding (PRKACA (human)): 0%
- inhibition of binding (PRKD1 (human)): 36%
- inhibition of binding (PRKD2 (human)): 38%
- inhibition of binding (PRKD3 (human)): 11%
- inhibition of binding (RIPK2 (human)): 0%
- inhibition of binding (RPS6KA1 KD1 (human)): 0%
- inhibition of binding (SIK1 (human)): 0%
- inhibition of binding (SIK3 (human)): 0%
- inhibition of binding (TESK1 (human)): 0%
- inhibition of binding [4]: 0%
SMILES: Nc1cc(C(F)(F)F)c(-c2cc(N3CCOCC3)nc(N3CCOCC3)n2)cn1
